Measured values taken from patent US8481679B2, “Immobilizing an entity in a desired orientation on a support material” (Arizona Board of Regents Acting on behalf of Arizona State …, priority 2007, dated 2013).

Tests used:
carbonic anhydrase [1] = assay: Corning Epic binding of carbonic anhydrase to wells pre-coated with attachment peptides; settings: carbonic anhydrase at 1 μM; 30 and 180 minute incubation
Source text: The selected candidate peptides were applied to the wells of a Corning Epic System 384-well microplate by linking the C-terminal cysteines of the peptides to surface amines of the Epic microplate wells via the maleimide and amine moieties, respectively, of a BMPH linker (Pierce). The immobilization of the peptides to the Epic microplate wells without carbonic anhydrase was first evaluated to identify any peptides binding poorly to the well surface, and to provide a basis for computing the maximum wavelength shift theoretically obtainable with optimal binding of the carbonic anhydrase to the peptides at a concentration sufficient to saturate. […] This could reflect inadequate binding to the surface due to poor solubility of the poorly binding peptides.
Carbonic anhydrase was applied in Epic microplate wells in which the selected peptides had been pre-applied to the well surface, in groups of four replicate wells and in carbonic anhydrase concentrations ranging from 31 nM to 1 μM. Observed wavelength shifts after 30 minute incubation of the indicated concentrations of carbonic anhydrase with peptides CA4, CA8, CA9, CA10, CA11, and CA12 are shown in FIG. 7(a).

carbonic anhydrase [2] = assay: Corning Epic binding of dansylamide to carbonic anhydrase immobilized by attachment peptides; settings: 1 μM dansylamide; six carbonic anhydrase concentrations, four replicates each; nearly all replicates
Procedure: Dansylamide, a known inhibitor of carbonic anhydrase, was applied to a range of concentrations (31 nM to 1 μM) of carbonic anhydrase immobilized in Epic wells by peptides CA4, CA8, CA9, CA10, CA11, and CA12. […] Wavelength shifts on the order of approximately 10 to 20 pm were observed upon application of the dansylamide to carbonic anhydrase immobilized at 1 μM concentration on peptides CA4, CA8, and CA11, confirming that the carbonic anhydrase was immobilized in an orientation that preserved the availability of the binding site (active site) and ability of the enzyme to consistently bind the inhibitor dansylamide, and confirming that the attachment peptides were able to immobilize carbonic anhydrase in the wells of an Epic plate in a manner such that binding of dansylamide to the carbonic anhydrase was readily detectable by the Epic technology.
For nearly all replicates, a shift on the order of 20 pm was observed upon application of the dansylamide.

beta-galactosidase = beta-galactosidase (Escherichia coli, UniProt P00722); settings: 50 nM beta-galactosidase, 5 μM FDG, 0.5 hour preincubation; selected peptide at 2, 10, 50, 100 μM
beta-galactosidase, sequence (P00722 2-1024): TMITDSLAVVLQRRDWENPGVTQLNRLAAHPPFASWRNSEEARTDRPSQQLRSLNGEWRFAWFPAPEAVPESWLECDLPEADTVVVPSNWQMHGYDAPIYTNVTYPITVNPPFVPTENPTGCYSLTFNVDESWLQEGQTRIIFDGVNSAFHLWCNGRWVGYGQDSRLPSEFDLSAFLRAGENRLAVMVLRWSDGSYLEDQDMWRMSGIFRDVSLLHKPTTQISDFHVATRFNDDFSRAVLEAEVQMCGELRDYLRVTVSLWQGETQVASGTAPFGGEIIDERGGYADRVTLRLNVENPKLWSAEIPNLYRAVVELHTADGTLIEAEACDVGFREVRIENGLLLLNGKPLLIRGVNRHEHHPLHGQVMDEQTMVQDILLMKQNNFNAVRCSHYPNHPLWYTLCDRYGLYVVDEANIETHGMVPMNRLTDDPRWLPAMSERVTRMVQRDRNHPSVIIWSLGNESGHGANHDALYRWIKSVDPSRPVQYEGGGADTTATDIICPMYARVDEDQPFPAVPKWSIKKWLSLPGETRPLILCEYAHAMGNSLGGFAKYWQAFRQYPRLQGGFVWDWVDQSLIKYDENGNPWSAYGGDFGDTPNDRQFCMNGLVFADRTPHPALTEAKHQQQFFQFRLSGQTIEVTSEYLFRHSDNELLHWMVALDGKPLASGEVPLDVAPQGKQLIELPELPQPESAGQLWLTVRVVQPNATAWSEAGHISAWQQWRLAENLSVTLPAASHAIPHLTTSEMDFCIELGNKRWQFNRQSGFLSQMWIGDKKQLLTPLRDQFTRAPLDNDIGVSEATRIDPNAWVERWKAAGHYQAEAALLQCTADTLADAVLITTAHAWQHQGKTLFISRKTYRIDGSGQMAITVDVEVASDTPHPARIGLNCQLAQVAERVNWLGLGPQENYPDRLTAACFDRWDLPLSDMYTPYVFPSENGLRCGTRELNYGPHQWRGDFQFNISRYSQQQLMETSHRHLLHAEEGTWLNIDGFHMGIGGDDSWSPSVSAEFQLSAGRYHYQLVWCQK
Procedure: The enzyme activity of the entity beta-galactosidase when bound to the selected peptide having the sequence […] (SEQ ID NO. 2), was evaluated in solution phase by preincubating varying concentrations of the peptide with beta-galactosidase for 0.5 hour, then adding substrate FDG in solution and measuring 520 nm fluorescence upon 488 nm excitation at a series of time points.

[3] = test system: T1, comparison attachment peptide (sequence ESVPTDLPMDTMEGKNWGSC (SEQ ID NO. 14))
T1 sequence: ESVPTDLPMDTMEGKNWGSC

[4] = test system: T2, selected peptide having the sequence FRNFPVPVIFRYLNPWPGSC (SEQ ID NO. 2)
T2 sequence: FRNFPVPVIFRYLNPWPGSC

## CA4: 20-residue candidate attachment peptide for carbonic anhydrase, C-terminal glycine-serine-cysteine; sequence only in FIG. 6A (HWHHRWWHHWKHPHHWRGSC; CA4 (Carbonic Anhydrase Peptide 4))
Carbonic anhydrase [1]
  wavelength shift on binding of carbonic anhydrase to peptide: wavelength shifts which persisted even after 180 minutes incubation

## CA12: 20-residue candidate attachment peptide for carbonic anhydrase, C-terminal glycine-serine-cysteine; sequence only in FIG. 6A (SIGIYGHAIARPGGWYFGSC; CA12 (Carbonic Anhydrase Peptide 12))
Carbonic anhydrase [1]
  wavelength shift on binding of carbonic anhydrase to peptide: wavelength shifts which persisted even after 180 minutes incubation

## CA9: 20-residue candidate attachment peptide for carbonic anhydrase, C-terminal glycine-serine-cysteine; sequence only in FIG. 6A (RVFKRYKRWLHVSRYYFGSC; CA9 (Carbonic Anhydrase Peptide 9))
Carbonic anhydrase [1]
  wavelength shift on binding of carbonic anhydrase to peptide: wavelength shifts which persisted even after 180 minutes incubation

## CA8: 20-residue candidate attachment peptide for carbonic anhydrase, C-terminal glycine-serine-cysteine; sequence only in FIG. 6A (RHWKWHWWRRHHPHHWFGSC; CA8 (Carbonic Anhydrase Peptide 8))
Carbonic anhydrase [1]
  wavelength shift on binding of carbonic anhydrase to peptide: wavelength shifts which persisted even after 180 minutes incubation

## CA11: 20-residue candidate attachment peptide for carbonic anhydrase, C-terminal glycine-serine-cysteine; sequence only in FIG. 6A (IEDTYLRFRHYGWYNNNGSC; CA11 (Carbonic Anhydrase Peptide 11))
Carbonic anhydrase [1]
  wavelength shift on binding of carbonic anhydrase to peptide: wavelength shifts which persisted even after 180 minutes incubation
Carbonic anhydrase [2]
  wavelength shift upon application of dansylamide (time course): ~20 pm

## ESVPTDLPMDTMEGKNWGSC [SEQ ID NO. 14]
beta-galactosidase
  520 nm fluorescence intensity (beta-galactosidase activity) relative to beta-galactosidase alone: slightly higher than for beta-galactosidase alone

## FRNFPVPVIFRYLNPWPGSC [SEQ ID NO. 2]
beta-galactosidase
  520 nm fluorescence intensity (beta-galactosidase activity) relative to beta-galactosidase alone: significantly lower than that for beta-galactosidase alone

## beta-galactosidase
[3]
  520 nm fluorescence intensity (FDG hydrolysis by beta-galactosidase, solution phase): slightly higher than for beta-galactosidase alone
[4]
  520 nm fluorescence intensity (FDG hydrolysis by beta-galactosidase, solution phase; peptide at 2, 10, 50 and 100 µM): at all concentrations was significantly lower than that for beta-galactosidase alone
